Measured values taken from patent US20140148443A1, “Novel Imidazolines as dual inhibitors of MDM2 and MDMX” (priority 2012, published 2014).

How the values were obtained:
[1] = target: recombinant GST-tagged MDM2 (Homo sapiens, UniProt Q00987); assay: HTRF assay of interaction between p53 peptide and GST-tagged MDM2; details: inhibition of GST-MDM2 (160 ng/ml) binding to biotinylated p53-peptide
In short: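 Compounds were preincubated with 160 ng/ml GST-MDM2 and 90 nM N-terminally biotinylated p53-like peptide (final) in 20 mM TBS, 0.02% BSA, 1 mM DTT for 1 h at 37 °C. Eu-anti-GST antibody and streptavidin-APC were added for 30 min at room temperature; binding read as TR-FRET at 665 and 615 nm.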

GST-tagged MDMX = target: T1, GST-tagged MDMX (Homo sapiens, UniProt O15151); assay: HTRF binding assay of GST-tagged MDMX to p53 peptide
T1 sequence (O15151 1-490): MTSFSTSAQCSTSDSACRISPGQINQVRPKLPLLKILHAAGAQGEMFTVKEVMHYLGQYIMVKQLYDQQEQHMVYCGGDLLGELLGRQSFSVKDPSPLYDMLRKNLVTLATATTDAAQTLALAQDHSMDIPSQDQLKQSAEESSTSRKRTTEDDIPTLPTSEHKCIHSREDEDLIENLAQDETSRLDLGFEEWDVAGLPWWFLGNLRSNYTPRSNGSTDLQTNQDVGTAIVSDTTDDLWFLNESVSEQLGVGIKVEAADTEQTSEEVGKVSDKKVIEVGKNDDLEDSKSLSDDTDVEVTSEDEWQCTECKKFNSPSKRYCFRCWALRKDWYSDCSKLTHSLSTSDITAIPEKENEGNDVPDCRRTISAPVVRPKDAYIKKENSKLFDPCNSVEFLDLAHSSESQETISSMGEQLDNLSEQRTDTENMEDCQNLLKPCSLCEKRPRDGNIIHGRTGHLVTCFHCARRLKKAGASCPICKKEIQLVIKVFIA

Sequence of recombinant GST-tagged MDM2 (Q00987 whole entry): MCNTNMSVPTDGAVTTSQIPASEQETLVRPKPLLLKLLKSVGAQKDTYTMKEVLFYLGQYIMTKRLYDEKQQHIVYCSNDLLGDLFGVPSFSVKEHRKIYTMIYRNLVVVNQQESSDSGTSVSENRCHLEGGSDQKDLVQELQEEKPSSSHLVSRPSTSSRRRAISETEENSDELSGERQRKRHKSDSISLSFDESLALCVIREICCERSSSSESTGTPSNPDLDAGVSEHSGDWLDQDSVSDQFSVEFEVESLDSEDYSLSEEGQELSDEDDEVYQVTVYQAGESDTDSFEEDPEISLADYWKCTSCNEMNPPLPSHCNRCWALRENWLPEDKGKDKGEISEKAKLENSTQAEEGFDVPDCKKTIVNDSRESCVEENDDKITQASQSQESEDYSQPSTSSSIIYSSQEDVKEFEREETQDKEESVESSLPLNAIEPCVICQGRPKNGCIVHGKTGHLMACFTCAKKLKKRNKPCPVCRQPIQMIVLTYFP

Structure (SMILES)	IC50 [1] [nM]	IC50 (GST-tagged MDMX) [nM]
CC(C)Oc1cc(Cl)c(S(=O)(=O)NC(C)(C)C)cc1C1=N[C@@](C)(c2ccc(Cl)cc2)[C@@](C)(c2ccc(Cl)cc2)N1C(=O)N1CCN(CCCS(C)(=O)=O)CC1 [Example 63, 5-{(4S,5R)-4,5-Bis-(4-chloro-phenyl)-1-[4-(3-methanesulfonyl-propyl)-piperazine-1-carbonyl]-4,5-dimethyl-4,5-dihydro-1H-imidazol-2-yl}-N-tert-butyl-2-chloro-4-isopropoxy-benzenesulfonamide]	4.4	212
CC(C)Oc1cc(Cl)c(S(N)(=O)=O)cc1C1=N[C@@](C)(c2ccc(Cl)cc2)[C@@](C)(c2ccc(Cl)cc2)N1C(=O)N1CCC(CC(N)=O)CC1 [Example 64, 2-{1-[(4S,5R)-2-(4-Chloro-2-isopropoxy-5-sulfamoyl-phenyl)-4,5-bis-(4-chloro-phenyl)-4,5-dimethyl-4,5-dihydro-imidazole-1-carbonyl]-piperidin-4-yl}-acetamide]	6.2	283
CC(C)Oc1cc(Cl)c(S(N)(=O)=O)cc1C1=N[C@@](C)(c2ccc(Cl)cc2)[C@@](C)(c2ccc(Cl)cc2)N1C(=O)N1CCN(CCCS(C)(=O)=O)CC1 [Example 65, 5-{(4S,5R)-4,5-Bis-(4-chloro-phenyl)-1-[4-(3-methanesulfonyl-propyl)-piperazine-1-carbonyl]-4,5-dimethyl-4,5-dihydro-1H-imidazol-2-yl}-2-chloro-4-isopropoxy-benzenesulfonamide]	7.7	337
